Laboratory results published in patent US8796023B2, “Peptide nanostructures containing end-capping modified peptides and methods of generating and using the same” (Ramot at Tel-Aviv University Ltd., priority 2004, dated 2014).
Read-outs that look alike come from different tables or passages of the source. Residues, ends and D or L forms follow the SMILES beside them. *: point of attachment. Fmoc = O=C(OCC1c2ccccc2-c2ccccc21)*; Cbz = O=C(OCc1ccccc1)*; Boc = CC(C)(C)OC(=O)*

Key:
[1] = Self-assembly of end-capping modified diphenylalanine peptides, viewed by SEM/TEM; format: physicochemical; details: for structures formed by self-assembly (morphology): HFIP stock diluted in ddH2O, SEM/TEM/AFM
Protocol: (§1) Materials—End capping modified diphenylalanine peptides, presented in Table 3 hereinbelow, were purchase from Bachem (Bubendorf, Switzerland). Fresh stock solutions of the peptides were prepared by dissolving the lyophilized form of the peptides in 1,1,1,3,3,3-hexafluoro-2-propanol (HFIP, Sigma) at a concentration of 100 mg/ml. To avoid any pre-aggregation, fresh stock solutions were prepared for each experiment. The cyclo-Phe-Phe peptide (Peptide 8) was dissolved in HFIP to a concentration of 25 mg/ml and was subjected to ultrasound until a clear solution was obtained. The peptides stock solutions were diluted into a final concentration of 2 mg/ml in ddH2O. The NH2-Phe-Phe-NH2 peptide (Peptide 3) was diluted into a final concentration of 10 mg/ml in ddH2O.
Scanning electron microscopy (SEM) —Immediately after dilution in ddH2O, peptide solution was allowed to dry at room temperature over glass cover slip and coated with gold. Scanning electron microscopy images were obtained using a JSM JEOL 6300 SEM operating at 5 kV.
Transmission Electron microscopy (TEM) —Samples were placed on a 200 mesh copper grid, covered by carbon stabilized formvar film. After 1 minute excess fluid was removed and the grid was thereafter negatively stained with 2% uranyl acetate in water. After 2 minutes, excess fluid was removed from the grid. The samples were viewed in JEOL 1200EX electron microscope operating at 80 kV.
High resolution transmission electron microscopy—Samples were viewed using a Philips Tecnai F20 Field Emission Gun electron microscope operating at 200 kV. EDX analysis was performed with EDAX detector.
High resolution scanning electron microscopy—HRSEM grids were viewed using a JSM-6700 field emission scanning electron microscope equipped with a cold field emission gun operating at 1 kV.

[2] = Fourier transform infrared spectroscopy of the self-assembled structures; format: physicochemical; details: FT-IR amide-I region
Protocol: Fourier Transform Infrared Spectroscopy—Infrared spectra were recorded using a Nicolet Nexus 470 FT-IR spectrometer with a deuterated triglycine sulfate (DTGS) detector. Peptide solution taken from the abovementioned SEM assays were deposited on a CaF2 plate and dried under reduced pressure. The peptide deposits were resuspended with D2O and subsequently dried to form thin films. The resuspension procedure was repeated twice to ensure maximal hydrogen to deuterium exchange. The measurements […] a 4 cm^−1 resolution and averaging of 2000 scans. The transmittance minimal values were determined by the OMNIC analysis program (Nicolet).

[3] = same conditions, per WO 2004/052773; cited from earlier work
[4] = Atomic force microscope (AFM) imaging of the peptide nanostructures; format: physicochemical; details: tapping mode, deposited on mica
Protocol: Atomic Force Microscope (AFM) imaging—The peptide sample solution was diluted again in ddH2O to a concentration of 1 mg/ml. Then the peptide solution was placed on mica grade and dried in vacuum. Dried sample was analyzed using Molecular Imaging PicoSPM II system in tapping mode.

[5] = Dissolving the peptides for stock solutions; format: physicochemical; details: in water or in fluoroalcohols
Protocol: as §1

Compound	structures formed by self-assembly (morphology) [1]	molecular conformation of the self-assembled structures [2]	further results
cyclo-Phe-Phe [Peptide 8]	bundles of tubular structures	either an α-helix or a β-turn conformation	–
NC(=O)C(Cc1ccccc1)NC(=O)C(N)Cc1ccccc1 (stereo not drawn) [Peptide 3, NH2-Phe-Phe-NH2] (H-Phe-Phe-NH2; configuration not given here)	tubular structures	antiparallel β-sheet conformation	–
O=C(NC(Cc1ccccc1)C(=O)NC(Cc1ccccc1)C(=O)O)OCc1ccccc1 (stereo not drawn) [Peptide 7, Cbz-Phe-Phe-COOH] (Cbz-Phe-Phe-OH; configuration not given here)	fibrillar structures	antiparallel β-sheet conformation	–
NC(Cc1ccccc1)C(=O)NC(Cc1ccccc1)C(=O)O (stereo not drawn) [Peptide 1, NH2-Phe-Phe-COOH] (H-Phe-Phe-OH; configuration not given here)	–	–	structures formed by self-assembly (morphology) [3]: formation of nanotubes
CC(=O)NC(Cc1ccccc1)C(=O)NC(Cc1ccccc1)C(N)=O (stereo not drawn) [Peptide 2, Ac-Phe-Phe-NH2] (Ac-Phe-Phe-NH2; configuration not given here)	organized and regular tubular structures	β-sheet conformation	height of nanostructures at the Z-range [4]: about 100 nm; diameters of the tubular structures ([1]; SEM, within minutes after dilution of peptide stock into aqueous solution): few microns to less than 100 nanometers
O=C(NC(Cc1ccccc1)C(=O)NC(Cc1ccccc1)C(=O)O)OCC1c2ccccc2-c2ccccc21 (stereo not drawn) [Peptide 6, Fmoc-Phe-Phe-COOH] (Fmoc-Phe-Phe-OH; configuration not given here)	fibrillar structures	–	–
CC(=O)NC(Cc1ccccc1)C(=O)NC(Cc1ccccc1)C(=O)O (stereo not drawn) [Peptide 4, Ac-Phe-Phe-COOH] (Ac-Phe-Phe-OH; configuration not given here)	–	–	dissolution [5]: did not dissolve
CC(C)(C)OC(=O)NC(Cc1ccccc1)C(=O)NC(Cc1ccccc1)C(=O)O (stereo not drawn) [Peptide 5, Boc-Phe-Phe-COOH] (Boc-Phe-Phe-OH; configuration not given here)	highly ordered tubular structures	α-helix conformation	–
